Each block holds one compound with its values, some of them ahead of it.
System: 922993-354-T-J3-PDC complex spheroids, viability
Assay: Anticancer human tumor 922993-354-T-J3-PDC patient-derived endometrial carcinoma cell line growth inhibition [GQUAD]
Conditions: for IC50: curve of first compound; for viability, T/C: stronger effect = lower value
How it was run: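 Multi-cell-type spheroids of tumor cells with HUVEC and mesenchymal stem cells, treated with drug combinations. Concentrations descend in half-log steps from near clinical Cmax, or from 10 microM where Cmax is unknown; viability read-out.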

[1] = second compound 0.0316 µM, first compound 0.0316 µM
[2] = second compound 0.0316 µM, first compound 0.316 µM
[3] = second compound 0.1 µM, first compound 0.0316 µM
[4] = second compound 0.1 µM, first compound 0.316 µM
[5] = second compound 0.316 µM, first compound 0.0316 µM
[6] = second compound 0.316 µM, first compound 0.316 µM
[7] = second compound 1 µM, first compound 0.0316 µM
[8] = second compound 1 µM, first compound 0.316 µM
[9] = second compound 3.16 µM, first compound 0.0316 µM
[10] = second compound 3.16 µM, first compound 0.316 µM
[11] = second compound 10 µM, first compound 0.0316 µM
[12] = second compound 10 µM, first compound 0.316 µM
[13] = second compound 0.0316 µM, first compound 0.1 µM
[14] = second compound 0.0316 µM, first compound 1 µM
[15] = second compound 0.0316 µM, first compound 3.16 µM
[16] = second compound 0.0316 µM, first compound 10 µM
[17] = second compound 0.1 µM, first compound 0.1 µM
[18] = second compound 0.1 µM, first compound 1 µM
[19] = second compound 0.1 µM, first compound 3.16 µM
[20] = second compound 0.1 µM, first compound 10 µM
[21] = second compound 0.316 µM, first compound 0.1 µM
[22] = second compound 0.316 µM, first compound 1 µM
[23] = second compound 0.316 µM, first compound 3.16 µM
[24] = second compound 0.316 µM, first compound 10 µM
[25] = second compound 1 µM, first compound 0.1 µM
[26] = second compound 1 µM, first compound 1 µM
[27] = second compound 1 µM, first compound 3.16 µM
[28] = second compound 1 µM, first compound 10 µM
[29] = second compound 3.16 µM, first compound 0.1 µM
[30] = second compound 3.16 µM, first compound 1 µM
[31] = second compound 3.16 µM, first compound 3.16 µM
[32] = second compound 3.16 µM, first compound 10 µM
[33] = second compound 10 µM, first compound 0.1 µM
[34] = second compound 10 µM, first compound 1 µM
[35] = second compound 10 µM, first compound 3.16 µM
[36] = second compound 10 µM, first compound 10 µM
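Note: spheroids exposed to compounds for seven days.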
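Throughout, for viability, T/C: 100% = DMSO vehicle control viability.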

IC50 (second compound 0.0316 µM): > 0.316 µM
IC50 (second compound 0.1 µM): 0.109 µM
IC50 (second compound 0.316 µM): < 0.000999 µM
IC50 (second compound 1 µM): < 0.000999 µM
IC50 (second compound 3.16 µM): < 0.000999 µM
IC50 (second compound 10 µM): < 0.000999 µM
Structure (SMILES): Cc1[nH]c2ccccc2c1CCNCc1ccc(/C=C/C(=O)NO)cc1 + Cc1cnc(CNC(=O)c2c(=O)c3ccc(N4CCCN(C)CC4)nc3n3c2sc2ccccc23)cn1
viability, T/C (second compound 0.0316 µM, first compound 0.000999 µM): 81.9%
viability, T/C (second compound 0.0316 µM, first compound 0.00316 µM): 86.5%
viability, T/C (second compound 0.0316 µM, first compound 0.00999 µM): 108%
viability, T/C [1]: 72.6%
viability, T/C (second compound 0.0316 µM, first compound 0.0999 µM): 73.5%
viability, T/C [2]: 54.3%
viability, T/C (second compound 0.1 µM, first compound 0.000999 µM): 55.7%
viability, T/C (second compound 0.1 µM, first compound 0.00316 µM): 64.3%
viability, T/C (second compound 0.1 µM, first compound 0.00999 µM): 57.6%
viability, T/C [3]: 55.8%
viability, T/C (second compound 0.1 µM, first compound 0.0999 µM): 47%
viability, T/C [4]: 45.4%
viability, T/C (second compound 0.316 µM, first compound 0.000999 µM): 54.2%
viability, T/C (second compound 0.316 µM, first compound 0.00316 µM): 33.7%
viability, T/C (second compound 0.316 µM, first compound 0.00999 µM): 44.2%
viability, T/C [5]: 34.7%
viability, T/C (second compound 0.316 µM, first compound 0.0999 µM): 40.9%
viability, T/C [6]: 30.8%
viability, T/C (second compound 1 µM, first compound 0.000999 µM): 42.6%
viability, T/C (second compound 1 µM, first compound 0.00316 µM): 46.7%
viability, T/C (second compound 1 µM, first compound 0.00999 µM): 38.9%
viability, T/C [7]: 34.9%
viability, T/C (second compound 1 µM, first compound 0.0999 µM): 33.9%
viability, T/C [8]: 31.2%
viability, T/C (second compound 3.16 µM, first compound 0.000999 µM): 40.9%
viability, T/C (second compound 3.16 µM, first compound 0.00316 µM): 48.6%
viability, T/C (second compound 3.16 µM, first compound 0.00999 µM): 41.6%
viability, T/C [9]: 41.7%
viability, T/C (second compound 3.16 µM, first compound 0.0999 µM): 29.9%
viability, T/C [10]: 24.6%
viability, T/C (second compound 10 µM, first compound 0.000999 µM): 36%
viability, T/C (second compound 10 µM, first compound 0.00316 µM): 40.3%
viability, T/C (second compound 10 µM, first compound 0.00999 µM): 44.8%
viability, T/C [11]: 30%
viability, T/C (second compound 10 µM, first compound 0.0999 µM): 38.9%
viability, T/C [12]: 6.92%

Structure (SMILES): CC1COCCN1c1cc(-c2ccnn2C)c2ccnc(-c3ccn[nH]3)c2n1 (stereo unspecified) + Cc1[nH]c2ccc(F)cc2c1-c1nc2c3cccnc3c3ncccc3c2[nH]1
IC50 (second compound 0.0316 µM): 0.188 µM
IC50 (second compound 0.1 µM): 0.234 µM
IC50 (second compound 0.316 µM): 0.28 µM
IC50 (second compound 1 µM): 0.243 µM
IC50 (second compound 3.16 µM): 0.188 µM
IC50 (second compound 10 µM): 0.216 µM
viability, T/C [1]: 84%
viability, T/C [13]: 59.3%
viability, T/C [2]: 44.3%
viability, T/C [14]: 23.6%
viability, T/C [15]: 21%
viability, T/C [16]: 16.5%
viability, T/C [3]: 82%
viability, T/C [17]: 66%
viability, T/C [4]: 45.9%
viability, T/C [18]: 25.4%
viability, T/C [19]: 20.9%
viability, T/C [20]: 21.8%
viability, T/C [5]: 108%
viability, T/C [21]: 76.3%
viability, T/C [6]: 50.5%
viability, T/C [22]: 22.7%
viability, T/C [23]: 17.5%
viability, T/C [24]: 16.5%
viability, T/C [7]: 93.2%
viability, T/C [25]: 67%
viability, T/C [8]: 49%
viability, T/C [26]: 21.5%
viability, T/C [27]: 20.1%
viability, T/C [28]: 15.1%
viability, T/C [9]: 98.2%
viability, T/C [29]: 65.6%
viability, T/C [10]: 37.6%
viability, T/C [30]: 25%
viability, T/C [31]: 27.2%
viability, T/C [32]: 21.4%
viability, T/C [11]: 104%
viability, T/C [33]: 70.7%
viability, T/C [12]: 39.4%
viability, T/C [34]: 24.8%
viability, T/C [35]: 26.2%
viability, T/C [36]: 16.6%

IC50 (second compound 0.0316 µM): 2.86 µM
IC50 (second compound 0.1 µM): 1.02 µM
IC50 (second compound 0.316 µM): 0.456 µM
IC50 (second compound 1 µM): 3.99 µM
IC50 (second compound 3.16 µM): 1.83 µM
IC50 (second compound 10 µM): < 0.0316 µM
Structure (SMILES): COc1ccc([C@@H](O)c2cc(-c3ncnc4cc(N5CCOCC5)ccc34)c(F)cc2Cl)nn1 + Cc1cnc(CNC(=O)c2c(=O)c3ccc(N4CCCN(C)CC4)nc3n3c2sc2ccccc23)cn1
viability, T/C [1]: 84.2%
viability, T/C [13]: 60.5%
viability, T/C [2]: 88.1%
viability, T/C [14]: 66.6%
viability, T/C [15]: 49.9%
viability, T/C [16]: 42.9%
viability, T/C [3]: 79.9%
viability, T/C [17]: 61.7%
viability, T/C [4]: 67.7%
viability, T/C [18]: 44.3%
viability, T/C [19]: 44.1%
viability, T/C [20]: 35.6%
viability, T/C [5]: 66.7%
viability, T/C [21]: 54.3%
viability, T/C [6]: 48.1%
viability, T/C [22]: 52.6%
viability, T/C [23]: 45.5%
viability, T/C [24]: 38.1%
viability, T/C [7]: 57.1%
viability, T/C [25]: 49.5%
viability, T/C [8]: 56.7%
viability, T/C [26]: 57.7%
viability, T/C [27]: 58.6%
viability, T/C [28]: 27.1%
viability, T/C [9]: 51.8%
viability, T/C [29]: 51%
viability, T/C [10]: 55.7%
viability, T/C [30]: 52.3%
viability, T/C [31]: 47.8%
viability, T/C [32]: 14.6%
viability, T/C [11]: 45%
viability, T/C [33]: 50.7%
viability, T/C [12]: 46.8%
viability, T/C [34]: 38.6%
viability, T/C [35]: 30.3%
viability, T/C [36]: 4.3%

— PubChem BioAssay AID2060489 (Molecular Pharmacology Branch, DTP, NCI, 2025)
